target: T1, hNav1.8 (Homo sapiens, UniProt Q9Y5Y9); assay: hNav1.8 whole-cell patch-clamp electrophysiology (conventional or PatchXpress 7000) in stably transfected HEK cells; type: cell-based; settings: estimated IC50 calculated from single point % inhibition; HEK cells expressing hNav1.8; 8 sec prepulse to V1/2, 20 msec step to 0 mV; average of replicates; read-out: Nav1.8 EIC50
T1 construct: host or cells: HEK cells, stably transfected
Text: The ability of the benzimidazole derivatives of the formula (I) to inhibit the Nav1.8 channel may be measured using the assay described below.
HEK cells stably transfected with hNav1.8, purchased from Millipore (Millipore Corp., Billerica, Mass. 01821), were maintained according to manufacturer's instructions. For electrophysiological studies, cells were removed from the culture flask by brief trypsinization and re-plated at low density onto glass cover slips. Cells were typically used for electrophysiological experiments within 24 to 72 h after plating.
Cover slips containing HEK cells expressing hNav1.8 were placed in a bath on the stage of an inverted microscope and perfused (approximately 1 ml/min) with extracellular solution of the following composition: 138 mM NaCl, 2 mM CaCl2, 5.4 mM KCl, 1 mM MgCl2, 10 mM glucose, and 10 mM HEPES, pH 7.4, with NaOH. […] The osmolarity of the extracellular and intracellular solutions was 300 mOsm/kg and 295 mOsm/kg, respectively. All recordings were made at room temperature (22-24° C.) using AXOPATCH 200B amplifiers and PCLAMP software (Axon Instruments, Burlingame, Calif.).
hNav1.8 currents in HEK cells were measured using the whole-cell configuration of the patch-clamp technique (Hamill et al., 1981). Uncompensated series resistance was typically 2 to 5 mega ohms and >85% series resistance compensation was routinely achieved. As a result, voltage errors were negligible and no correction was applied. Current records were acquired at 20 to 50 KHz and filtered at 5 to 10 KHz.
HEK cells stably transfected with hNav1.8 were viewed under Hoffman contrast optics and placed in front of an array of flow pipes emitting either control or compound-containing extracellular solutions. All compounds were dissolved in dimethyl sulfoxide to make 10 mM stock solutions, which were then diluted into extracellular solution to attain the final concentrations desired.
The voltage-dependence of inactivation was determined by applying a series of depolarizing prepulses (8 sec long in 10 mV increments) from a negative holding potential. The voltage was then immediately stepped to 0 mV to assess the magnitude of the sodium current. Currents elicited at 0 mV were plotted as a function of prepulse potential to allow estimation of the voltage at which 50% of the channels were inactivated (midpoint of inactivation or V1/2). Compounds were tested for their ability to inhibit hNav1.8 sodium channels by activating the channel with a 20 msec voltage step to 0 mV following an 8 second conditioning prepulse to the empirically determined V1/2. Compound effect (% inhibition) was determined by difference in current amplitude before and after application of test compounds. For ease of comparison, “estimated IC50” values were calculated from single point electrophysiology data by the following equation, (tested concentration, uM)×(100-% inhibition/% inhibition). Inhibition values<20% and >80% were excluded from the calculation.
In some cases electrophysiological assays were conducted with PatchXpress 7000 hardware and associated software (Molecular Devices Corp). All assay buffers and solutions were identical to those used in conventional whole-cell voltage clamp experiments described above. hNav1.8 cells were grown as above to 50%-80% confluency and harvested by trypsinization. Trypsinized cells were washed and resuspended in extracellular buffer at a concentration of 1×10^6 cells/ml. The onboard liquid handling facility of the PatchXpress was used for dispensing cells and application of test compounds. Determination of the voltage midpoint of inactivation was as described for conventional whole-cell recordings. Cells were then voltage-clamped to the empirically determined V1/2 and current was activated by a 20 msec voltage step to 0 mV.
Estimated IC50 values for the compounds of formula (I) exemplified above are as follows. […]

T1 sequence (Q9Y5Y9 whole entry): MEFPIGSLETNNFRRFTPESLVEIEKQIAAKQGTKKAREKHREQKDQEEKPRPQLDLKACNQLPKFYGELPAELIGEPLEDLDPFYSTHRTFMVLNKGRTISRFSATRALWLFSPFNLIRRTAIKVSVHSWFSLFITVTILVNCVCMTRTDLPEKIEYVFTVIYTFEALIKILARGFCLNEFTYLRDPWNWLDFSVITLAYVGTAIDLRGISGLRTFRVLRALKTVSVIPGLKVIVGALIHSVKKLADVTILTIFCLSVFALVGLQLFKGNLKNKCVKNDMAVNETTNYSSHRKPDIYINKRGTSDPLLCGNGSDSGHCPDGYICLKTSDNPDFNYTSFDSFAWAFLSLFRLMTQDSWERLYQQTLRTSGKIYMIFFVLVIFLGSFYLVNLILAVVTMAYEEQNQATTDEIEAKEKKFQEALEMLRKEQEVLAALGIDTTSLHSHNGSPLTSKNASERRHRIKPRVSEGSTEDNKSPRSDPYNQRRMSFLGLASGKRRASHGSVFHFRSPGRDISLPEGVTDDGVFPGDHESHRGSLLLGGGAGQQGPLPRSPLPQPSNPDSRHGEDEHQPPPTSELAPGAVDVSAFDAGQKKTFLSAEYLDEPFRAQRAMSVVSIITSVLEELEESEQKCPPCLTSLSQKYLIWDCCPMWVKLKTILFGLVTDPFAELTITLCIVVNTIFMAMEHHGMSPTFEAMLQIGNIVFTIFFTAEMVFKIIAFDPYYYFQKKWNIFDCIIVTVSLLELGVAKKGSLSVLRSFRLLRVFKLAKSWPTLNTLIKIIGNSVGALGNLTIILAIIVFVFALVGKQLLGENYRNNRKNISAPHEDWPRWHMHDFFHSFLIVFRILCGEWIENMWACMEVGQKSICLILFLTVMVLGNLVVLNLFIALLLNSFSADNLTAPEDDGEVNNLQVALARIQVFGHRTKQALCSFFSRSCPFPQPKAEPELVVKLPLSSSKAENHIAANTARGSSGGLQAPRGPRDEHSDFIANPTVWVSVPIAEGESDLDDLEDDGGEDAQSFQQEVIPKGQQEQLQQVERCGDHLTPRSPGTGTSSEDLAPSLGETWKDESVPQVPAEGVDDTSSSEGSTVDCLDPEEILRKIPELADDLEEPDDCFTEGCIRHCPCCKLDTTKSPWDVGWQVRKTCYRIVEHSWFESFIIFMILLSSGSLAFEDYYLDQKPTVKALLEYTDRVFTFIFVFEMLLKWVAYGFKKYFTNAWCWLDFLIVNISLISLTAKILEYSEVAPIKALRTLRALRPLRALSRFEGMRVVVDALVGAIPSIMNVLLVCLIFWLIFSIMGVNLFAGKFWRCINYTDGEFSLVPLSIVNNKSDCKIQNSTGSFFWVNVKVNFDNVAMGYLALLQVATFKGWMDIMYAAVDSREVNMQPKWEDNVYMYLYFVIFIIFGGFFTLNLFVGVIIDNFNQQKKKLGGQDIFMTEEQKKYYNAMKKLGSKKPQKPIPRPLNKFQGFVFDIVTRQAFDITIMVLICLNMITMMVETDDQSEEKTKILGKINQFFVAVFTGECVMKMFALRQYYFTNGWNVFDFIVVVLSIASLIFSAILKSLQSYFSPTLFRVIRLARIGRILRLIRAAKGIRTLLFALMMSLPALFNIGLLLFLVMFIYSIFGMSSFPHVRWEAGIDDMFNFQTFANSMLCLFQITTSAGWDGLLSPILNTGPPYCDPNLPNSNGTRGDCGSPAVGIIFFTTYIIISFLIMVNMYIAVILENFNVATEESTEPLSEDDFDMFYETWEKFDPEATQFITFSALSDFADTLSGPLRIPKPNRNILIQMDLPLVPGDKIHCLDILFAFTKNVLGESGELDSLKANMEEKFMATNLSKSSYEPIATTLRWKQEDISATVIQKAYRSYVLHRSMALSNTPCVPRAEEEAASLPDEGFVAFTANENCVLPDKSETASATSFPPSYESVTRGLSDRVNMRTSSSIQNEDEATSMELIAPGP

| Structure (SMILES) | IC50 [nM] |
| --- | --- |
| CNC(=O)[C@H](C)[C@H](N)c1nc2cc(C(C)(C)C)ccc2[nH]1 [Example 108, (2R,3S)-3-Amino-3-(6-tert-butyl-1H-benzimidazol-2-yl)-N,2-dimethylpropanamide] | 207 |
| CC(C)(C)c1ccc2[nH]c(C3(N)Cc4ccccc4C3)nc2c1 [Example 2, 2-(5-tert-Butyl-1H-benzimidazol-2-yl)-2,3-dihydro-1H-inden-2-amine] | 76 |
| CCC(C)(C)c1ccc2[nH]c([C@@H](N)COC)nc2c1 [Example 31, (1R)-2-Methoxy-1-[5-(2-methylbutan-2-yl)-1H-benzimidazol-2-yl]ethanamine] | 125 |
| C[C@@H](C(N)=O)[C@H](N)c1nc2c(Cl)c(-c3ccc(C#N)cc3)ccc2[nH]1 [Example 111, (2R,3S)-3-Amino-3-[4-chloro-5-(4-cyanophenyl)-1H-benzimidazol-2-yl]-2-methylpropanamide] | 190 |
| C[C@@H](N)c1nc2cc(-c3ccc(C#N)cc3)ccc2[nH]1 [Example 54, 4-{2-[(1R)-1-aminoethyl]-1H-benzimidazol-5-yl}benzonitrile] | 662 |
| C[C@@H](C(N)=O)[C@H](N)c1nc2cc(C(C)(C)C)ccc2[nH]1 (single isomer, unassigned) [Example 103] | 15.4 |
| N#Cc1ccc(-c2ccc3[nH]c(C4(N)Cc5ccccc5C4)nc3c2)cc1F [Example 114, 4-[2-(2-Amino-2,3-dihydro-1H-inden-2-yl)-1H-benzimidazol-5-yl]-2-fluorobenzonitrile] | 27.8 |
| CC(C)(C)c1ccc2[nH]c([C@H](N)CCCO)nc2c1 [Example 135, (4R)-4-Amino-4-(5-tert-butyl-1H-benzimidazol-2-yl)butan-1-ol] | 1000 |
| C[C@@H](C(N)=O)[C@H](N)c1nc2cc(-c3ccc(C#N)c(F)c3)ccc2[nH]1 [Example 109, (2R,3S)-3-Amino-3-[5-(4-cyano-3-fluorophenyl)-1H-benzimidazol-2-yl]-2-methylpropanamide] | 56.1 |
| C[C@H](O)[C@H](N)c1nc2cc(C(C)(C)C)ccc2[nH]1 [Example 19, (1R,2S)-1-Amino-1-(5-tert-butyl-1H-benzimidazol-2-yl)propan-2-ol] | 176 |
| C[C@H](O)[C@H](N)c1nc2cc(-c3ccc(C#N)cc3)ccc2[nH]1 [Example 138, 4-{2-[(1R,2S)-1-Amino-2-hydroxypropyl]-1H-benzimidazol-5-yl}benzonitrile] | 486 |
| CO[C@H](C)[C@H](N)c1nc2cc(-c3ccc(C#N)c(F)c3)ccc2[nH]1 [Example 85, 4-{2-[(1R,2R)-1-Amino-2-methoxypropyl]-1H-benzimidazol-5-yl}-2-fluorobenzonitrile] | 10.5 |
| CC(C)(C)c1ccc2[nH]c([C@@H]3C[C@H](F)CN3)nc2c1 [Example 132, 5-tert-Butyl-2-[(2S,4S)-4-fluoropyrrolidin-2-yl]-1H-benzimidazole] | 191 |
| CC[C@H](N)c1nc2cc(C3CCC3)ccc2[nH]1 [Example 113, 1-(5-Cyclobutyl-1H-benzimidazol-2-yl)propylamine] | 749 |
| CC(C)(C)Cc1ccc2[nH]c(C3(N)Cc4ccccc4C3)nc2c1 [Example 116, 2-[6-(2,2-Dimethylpropyl)-1H-benzimidazol-2-yl]-2,3-dihydro-1H-inden-2-amine] | 222 |
| C[C@@H](O)[C@H](N)c1nc2cc(-c3ccc(C#N)cc3F)ccc2[nH]1 [Example 101, 4-{2-[(1R,2R)-1-Amino-2-hydroxypropyl]-1H-benzimidazol-5-yl}-3-fluorobenzonitrile] | 200 |
| CC(C)(N)c1nc2cc(-c3cc(F)cc(C#N)c3)ccc2[nH]1 [Example 70, 3-[2-(1-Amino-1-methylethyl)-1H-benzimidazol-5-yl]-5-fluorobenzonitrile] | 3160 |
| CC(C)(C)[C@@H](N)c1nc2cc(-c3ccc(C#N)cc3)ccc2[nH]1 [Example 48, 4-{2-[(1R)-1-Amino-2,2-dimethylpropyl]-1H-benzimidazol-5-yl}benzonitrile] | 469 |

| Structure (SMILES) | IC50 [nM] |
| --- | --- |
| C[C@H](OC(N)=O)[C@H](N)c1nc2cc(C34CC5CC(CC(C5)C3)C4)ccc2[nH]1 [Example 151, (1R,2S)-1-(5-((3R,5R,7R)-Adamantan-1-yl)-1H-benzo[d]imidazol-2-yl)-1-aminopropan-2-yl carbamate] | 45.2 |
| COC(C)(C)C(N)c1nc2cc(C(C)(C)C)ccc2[nH]1 (centres unmarked) [Example 27, 1-(5-tert-Butyl-1H-benzimidazol-2-yl)-2-methoxy-2-methylpropan-1-amine] | 153 |
| CO[C@H](C)[C@H](N)c1nc2cc(-c3ccc(C#N)cc3C(F)(F)F)ccc2[nH]1 [Example 86, 4-{2-[(1R,2R)-1-Amino-2-methoxypropyl]-1H-benzimidazol-5-yl}-3-(trifluoromethyl)-benzonitrile] | 111 |
| CC(C)(C)c1ccc2[nH]c([C@](C)(N)CO)nc2c1 [Example 80, (2S)-2-Amino-2-(5-tert-butyl-1H-benzimidazol-2-yl)propan-1-ol] | 87.6 |
| CO[C@H](C)[C@@H](N)c1nc2cc(C(C)(C)C)ccc2[nH]1 [Example 83, (1S,2R)-1-(5-tert-Butyl-1H-benzimidazol-2-yl)-2-methoxypropan-1-amine] | 872 |
| CC[C@H](N)c1nc2cc(CC(C)(C)C)ccc2[nH]1 [Example 112, (1S)-1-[5-(2,2-Dimethylpropyl)-1H-benzimidazol-2-yl]propan-1-amine] | 187 |
| N#Cc1ccc(-c2ccc3[nH]c([C@@H]4C[C@@H](O)CN4)nc3c2)cc1 (stereo in doubt) [Example 46, 4-{2-[(2S,4R)-4-Hydroxypyrrolidin-2-yl]-1H-benzimidazol-5-yl}benzonitrile] | 713 |
| CCCc1ccc2[nH]c(C(C)(C)N)nc2c1 [Example 69, 2-(5-Propyl-1H-benzimidazol-2-yl)propan-2-amine] | 3900 |
| CC(C)(C)c1ccc2[nH]c([C@H](N)CCO)nc2c1 [Example 134, (3R)-3-Amino-3-(5-tert-butyl-1H-benzimidazol-2-yl)propan-1-ol] | 355 |
| CC(C)(C)c1ccc2[nH]c(C3(N)CCCC3)nc2c1 [Example 13, 1-(5-tert-Butyl-1H-benzimidazol-2-yl)cyclopentanamine] | 496 |
| C[C@@H](O)[C@H](N)c1nc2cc(C(C)(C)C)ccc2[nH]1 [Example 78, (1R,2R)-1-Amino-1-(5-tert-butyl-1H-benzimidazol-2-yl)propan-2-ol] | 59.3 |
| CN[C@H](c1nc2cc(C(C)(C)C)ccc2[nH]1)[C@@H](C)O [Example 79, (1R,2R)-1-(5-tert-Butyl-1H-benzimidazol-2-yl)-1-(methylamino)propan-2-ol] | 168 |
| N#Cc1ccc(-c2ccc3[nH]c([C@@H]4CCCCN4)nc3c2)cc1 [Example 51, 4-{2-[(2S)-Piperidin-2-yl]-1H-benzimidazol-5-yl}benzonitrile] | 3130 |
| CC(C)(C)c1ccc2[nH]c([C@@H]3C[C@@H](F)CN3)nc2c1 [Example 131, 5-tert-Butyl-2-[(2S,4R)-4-fluoropyrrolidin-2-yl]-1H-benzimidazole] | 394 |
| CCCC[C@H](N)c1nc2cc(-c3ccc(C#N)cc3)ccc2[nH]1 [Example 60, 4-{2-[(1S)-1-aminopentyl]-1H-benzimidazol-5-yl}benzonitrile] | 166 |
| CC(C)C[C@@H](N)c1nc2cc(C(C)(C)C)ccc2[nH]1 [Example 8, (1R)-1-(5-tert-Butyl-1H-benzimidazol-2-yl)-3-methylbutan-1-amine] | 108 |
| CO[C@H](C)[C@H](N)c1nc2cc(-c3ccccc3C#N)ccc2[nH]1 [Example 77, 2-{2-[(1R,2R)-1-Amino-2-methoxypropyl]-1H-benzimidazol-5-yl}benzonitrile] | 483 |

Reference: patent publication US8927587B2, “Chemical compounds” (Pfizer Limited, priority 2012, dated 2015)
